Measurements: publication PMC7178208 (International Journal of Molecular Sciences, 2020)
Converted amounts (≈) assume the structure as drawn. “Also recorded” adds a separate entry of the source. Square brackets hold non-standard residues; d marks the D form. Peptide text beside a SMILES is read from it. * marks the point of attachment. FITC = O=C1OC2(c3ccc(O)cc3Oc3cc(O)ccc32)c2ccc(NC(=S)*)cc21; Bip = N[C@@H](Cc1ccc(-c2ccccc2)cc1)C(=O)O; Dip = N[C@H](C(=O)O)C(c1ccccc1)c1ccccc1; Ahx = NCCCCCC(=O)O

Experiments:
[1] = 10^7 CFU/mL of C. albicans in SD broth; settings: C. albicans (ATCC 10231), 301 K, up to 24 h
[2] = 10^7 CFU/mL of C. albicans + 0.5 mM pepstatin A; settings: C. albicans (ATCC 10231), 301 K, up to 24 h
[3] = test system: C. albicans American Type Culture Collection (ATCC) 10,231; type: cell-based, Candida albicans; settings: American Type Culture Collection (ATCC) 10,231, 24 h
Experimental: C. albicans (ATCC 10231) from the American Type Culture Collection (Manassas, VA, USA) was cultured at 28 °C on SD agar plates.
To determine the minimum inhibitory concentration (MIC) values of the FITC conjugated-P-113 peptides and their derivatives, a broth microdilution assay was used. Overnight-grown cultures of C. albicans in SD broth were sub-cultured for several hours and subsequently diluted to a final concentration of 5 × 10^4 CFU/mL in Mueller Hinton (MH) broth and LYM broth. A total of 100 μL of diluted microbe was transferred into each well of a 96-well plate, into which a 1 μL dilution series of peptides in sterile water (ranging from 50 to 0.78 μg/mL) was previously added. After incubation for 24 h at 28 ℃, the MIC value of P-113 peptides was determined as the lowest concentration at which no change in optical density was observed. The experiment was conducted three times, and average values were reported.

[4] = test system: C. albicans; assay: Flow cytometry, fluorescence of cells incubated with FITC peptides; type: cell-based, Candida albicans; settings: 50 μM FITC peptide, 5 × 10^6 CFU/mL, SD broth, 28 °C, 30 min, n = 3
Experimental: Firstly, 5 × 10^6 CFU/mL of C. albicans cells were incubated with 50 µM FITC P-113, FITC N-terminal truncated P-113, and FITC C-terminal truncated P-113 peptides for 30 min at 28 °C in SD broth. The resuspended cell pellets described above were also used for flow cytometry experiments. Flow cytometric cell sorting was performed (10,000 events/sample) by using flow cytometry (BD Accuri™ C6 Plus Flow Cytomete, BD Biosciences, NJ, USA). The quantitative data were analyzed by Prism software.

[5] = test system: C. albicans; assay: Fluorescence microscopy, localization of FITC truncated peptides; type: cell-based, Candida albicans; settings: 50 μM FITC peptide, 10^7 CFU/mL, SD broth, 28 °C, 30 min
Experimental: Firstly, 10^7 CFU/mL of C. albicans cells were incubated with 50 µM FITC N-terminal truncated P-113, FITC C-terminal truncated P-113 peptides, and FITC alone for 30 min at 28 °C in SD broth. After incubation, the cells were centrifuged at 3500× g for 5 min and then washed three times with 20 mM phosphate buffer (pH 7.4) to remove unbound peptides. The resulting pellets were resuspended and immobilized on the glass slips with a 1.4% solid agarose bed. Fluorescence images were captured using an inverted fluorescence microscope (ECLIPSE E400, Nikon, Tokyo, Japan) with a camera (AxioCam ICc5, ZEISS, Jena, Germany).

[6] = test system: Candida albicans; type: cell-based; settings: 1× MIC, 30 min, SD broth, 28 °C, 5 × 10^4 CFU/mL, normal salt conditions, triplicate
Experimental: Figure 7 Time killing activity of FITC-labeled P-113 peptide and its FITC-labeled derivatives against Candida albicans. Cells were treated with 1× MIC of (a) P-113 (black circle), FITC-labeled N-terminal truncated P-113 (black square), FITC-labeled C-terminal truncated P-113 (black triangle), and (b) treated with FITC-labeled Bip-P-113 (white square), and FITC-labeled Dip-P-113 (white triangle). Killed cells (%) = (cell number in peptide-free control − cell number in sample)/(cell number in peptide-free control) × 100. Error bars represent the standard errors of the mean.
C. albicans were cultivated onto Sabouraud dextrose agar plates overnight and sub-cultured twice before time killing assays. A total of 5 × 10^4 CFU/mL of C. albicans cells were treated with 1× MIC of FITC-conjugated P-113 peptides and their derivatives in SD broth for 10, 20, 30, 60, and 120 min at 28 °C. After that time, serial dilutions (1:10) of the incubation mixtures were added onto SD agar. The numbers of CFU were counted after 24 h of incubation at 28 °C. The percentage of killed cells was calculated by comparison with the number of cells in a control sample incubated without P-113 peptide. The assays were performed in triplicate.

[7] = test system: C. albicans; assay: Confocal laser microscopy, localization of FITC peptides; type: cell-based, Candida albicans; settings: 50 μM FITC-conjugated peptide, 10^7 CFU/mL, SD broth, 28 °C, 5 min
Experimental: Firstly, 10^7 CFU/mL of C. albicans was incubated with 0.25 mM FITC P-113 and 0.25 mM FITC alone (as a negative control) in SD broth at 28 °C for 1, 2, 3, 4, 5, and 6 h. Another experiment was performed to observe the short-term localization of Bip-P-113 and Dip-P-113 peptides. Briefly, log-phase C. albicans cultures were resuspended to a cell density of 10^7 CFU/mL in SD broth and treated for 5 min at 28 °C with 50 μM FITC-conjugated P-113, Bip-P-113, and Dip-P-113. After centrifugation, the cells were washed three times with 20 mM phosphate buffer (pH 7.4) to remove nonbinding peptides and fixed with 4% (w/v) paraformaldehyde in 20 mM phosphate buffer (pH 7.4) at room temperature for 20 min. Following fixation, the cells were centrifuged at 3500× g for 5 min, resuspended in phosphate buffer, and loaded onto a glass slide with a 1.4% solid agarose bed. The images were taken with a confocal laser scanning microscope (LSM 510 META, Carl Zeiss, Jena, Germany) equipped with a 40× C-Apochromat water-immersion objective lens (Carl Zeiss, Jena, Germany).

[8] = test system: C. albicans; assay: Scanning electron microscopy, cell morphology; type: cell-based, Candida albicans; settings: 50 μM peptide, 10^7 CFU/mL, SD broth, 28 °C, 5 min
Experimental: Time-course morphological studies of C. albicans were performed by scanning electron microscopy (SEM). Overnight cultures of C. albicans were sub-cultured and grown in SD broth. Then, 10^7 CFU/mL of C. albicans was treated with 0.25 mM P-113 in SD broth at 28 °C. Samples were collected following 1, 2, 3, 4, 5, and 6 h of incubation. Another experiment was performed to observe the morphological changes caused over in a short time caused by Bip-P-113 and Dip-P-113. Briefly, 10^7 CFU/mL of C. albicans in SD broth was treated for 5 min at 28 °C with 50 μM P-113, Bip-P-113, and Dip-P-113. After harvest, cells were resuspended in fixation solution (2.5% glutaraldehyde in 20 mM phosphate buffer pH 7.4) and then placed on Thermanox substrate-coated cover slips at 4 °C for 12 h. The cover slips were carefully washed three times with 20 mM phosphate buffer (pH 7.4), followed by incubation in post-fixation solution (1% OsO4 in 20 mM phosphate buffer pH 7.4) at room temperature for an hour. After being washed three times with 20 mM phosphate buffer (pH 7.4), the cover slips were air-dried for an hour by dehydration with a graded series of ethanol. Samples were gold-coated and observed under an S-4700 field-emission (FE)-SEM (Hitachi, Ltd., Tokyo, Japan) at an acceleration voltage of 5 kV.

[9] = histidine residues replaced with non-natural amino acids; cited from earlier work

Row | MIC, LYM Control [3] | MIC, MH Broth [3] | Compound | Cellular localization of FITC peptide [7] | Cell surface morphology (SEM), short exposure [8] | Degradation in serum [9] | also measured
1 |  |  | AKRHHGYKRKFH |  |  |  | cleaved bond [1]: Lys10-Phe11, first_seen, 1 h; also recorded: Tyr7-Lys8, 2–3 h; also recorded: Lys8-Arg9; not cleaved [2]: no noticeable changes in ^1H-^15N HSQC chemical shifts in the presence of pepstatin A (24 h)
2 | 50 µg/mL (≈ 28.1 µM) | >50 µg/mL | C[C@H](NC(=O)CCCCCNC(=S)Nc1ccc2c(c1)C(=O)OC21c2ccc(O)cc2Oc2cc(O)ccc21)C(=O)N[C@@H](CCCCN)C(=O)N[C@@H](CCCNC(=N)N)C(=O)N[C@@H](Cc1c[nH]cn1)C(=O)N[C@@H](Cc1c[nH]cn1)C(=O)NCC(=O)N[C@@H](Cc1ccc(O)cc1)C(=O)N[C@@H](CCCCN)C(=O)N[C@@H](CCCNC(=N)N)C(=O)N[C@@H](CCCCN)C(N)=O [C-ter truncated P-113] ({FITC-Ahx}-AKRHHGYKRK-NH2; N-terminus assumed) |  |  |  | Fluorescence intensity of cells compared with cells incubated with intact P-113 [4]: dramatic decrease in fluorescence intensity; Green fluorescence in cells compared with N-terminal truncated P-113 [5]: less green fluorescence
3 |  |  | C[C@H](NC(=O)CCCCCNC(=S)Nc1ccc2c(c1)C(=O)OC21c2ccc(O)cc2Oc2cc(O)ccc21)C(=O)N[C@@H](CCCCN)C(=O)N[C@@H](CCCNC(=N)N)C(=O)N[C@@H](Cc1ccc(-c2ccccc2)cc1)C(=O)N[C@@H](Cc1ccc(-c2ccccc2)cc1)C(=O)NCC(=O)N[C@@H](Cc1ccc(O)cc1)C(=O)N[C@@H](CCCCN)C(=O)N[C@@H](CCCNC(=N)N)C(=O)N[C@@H](CCCCN)C(=O)N[C@@H](Cc1ccccc1)C(=O)N[C@@H](Cc1ccc(-c2ccccc2)cc1)C(N)=O [Bip-P-113] ({FITC-Ahx}-AKR[Bip][Bip]GYKRKF[Bip]-NH2; N-terminus assumed) | accumulated on the surface of cells and did not translocate into the cytoplasm | became rippled and showed deep pore formation | protects | Reduction in cell viability [6]: 99%
4 | 25 µg/mL (≈ 13.4 µM) | >50 µg/mL | N=C(N)NCCC[C@H](NC(=O)CCCCCNC(=S)Nc1ccc2c(c1)C(=O)OC21c2ccc(O)cc2Oc2cc(O)ccc21)C(=O)N[C@@H](Cc1c[nH]cn1)C(=O)N[C@@H](Cc1c[nH]cn1)C(=O)NCC(=O)N[C@@H](Cc1ccc(O)cc1)C(=O)N[C@@H](CCCCN)C(=O)N[C@@H](CCCNC(=N)N)C(=O)N[C@@H](CCCCN)C(=O)N[C@@H](Cc1ccccc1)C(=O)N[C@@H](Cc1c[nH]cn1)C(N)=O [N-ter truncated P-113] ({FITC-Ahx}-RHHGYKRKFH-NH2; N-terminus assumed) |  |  |  | 
5 |  |  | C[C@H](NC(=O)CCCCCNC(=S)Nc1ccc2c(c1)C(=O)OC21c2ccc(O)cc2Oc2cc(O)ccc21)C(=O)N[C@@H](CCCCN)C(=O)N[C@@H](CCCNC(=N)N)C(=O)N[C@H](C(=O)N[C@H](C(=O)NCC(=O)N[C@@H](Cc1ccc(O)cc1)C(=O)N[C@@H](CCCCN)C(=O)N[C@@H](CCCNC(=N)N)C(=O)N[C@@H](CCCCN)C(=O)N[C@@H](Cc1ccccc1)C(=O)N[C@H](C(N)=O)C(c1ccccc1)c1ccccc1)C(c1ccccc1)c1ccccc1)C(c1ccccc1)c1ccccc1 [Dip-P-113] ({FITC-Ahx}-AKR[Dip][Dip]GYKRKF[Dip]-NH2; N-terminus assumed) | accumulated on the surface of cells and did not translocate into the cytoplasm | became rippled and showed deep pore formation | protects | 
